Data set [1] concerns Rat Peripheral Blood Lymphocyte Count. Put plainly: Measurement of rat peripheral blood lymphocyte count (relative count and ID50) after oral administration. In kind it is in vivo. Conditions: LEW rats; for Lymphocyte Count (Relative Value Based on a value of 100% for Normal Control Group) (%): blood collected 3 hours after administration, dose not given; for ID50 of rat peripheral blood lymphocyte count: dosage giving 50% inhibition rate of lymphocyte count. The protocol: Measurement of Rat Peripheral Blood Lymphocyte Count
• (1) LEW rats (males, age 5 weeks, Japan Charles River) were used in groups of 5 animals per group. • (2) Administration of Compounds
The compounds were suspended in 1% tragacanth liquid (solvent). The suspended compounds were orally administered to the rats using a gastric tube in a dose of 5 mL per kg of body weight. Furthermore, the solvent was administered instead of the suspended compounds to a normal control group. • (3) Measurement of Peripheral Blood Lymphocyte Count
Blood samples were collected from the descending vena cava under ether anesthesia 3 hours after administration of the solvent or suspended compounds, and then transferred to tubes containing EDTA.
The absolute lymphocyte counts were measured for the collected blood samples using a hematology testing device. Lymphocyte count lowering activity of the test compounds was calculated as a relative value (%) based on a value of 100% for the lymphocyte count of the normal control group.
Measurement of ID50 of Rat Peripheral Blood Lymphocyte Count (mg/kg)
Inhibition rate (%) ={1-(lymphocyte count of compound dose group/lymphocyte count of solvent dose group)}×100 The dosage of the compound that yielded a value of 50% for the inhibition rate was calculated as the ID50 value.

Data set [2] can be described thus: Rat pharmacokinetics (dosage: 1 mg/kg), blood compound concentrations. The format is in vivo. The following applies: male, whole blood, po, LEWIS rats, 1 mg/kg directly into the stomach; for AUC(0-t): read-out: AUC (0–24 h); for half-life: read-out: T½ (converted). The protocol:
Rat Pharmacokinetics (dosage: 1 mg/kg)
• (1) LEWIS rats (males, age 6 weeks, Japan Charles River) were used after acclimating for 1 week. 1 to 3 rats were used for each compound. • (2) Administration of Compounds
The compounds were dissolved in an aqueous physiological saline solution containing 4% (w/v) sulfobutyl ether β-cyclodextrin. The rats were administered the dissolved compounds directly into the stomach using a metal gastric tube in a dose of 2 mL per kg of body weight. • (3) Measurement of Blood Compound Concentrations
Blood samples were collected at 0.1 mL/animal/collection from the jugular vein using heparin as anticoagulant under ether anesthesia at predetermined times after administering the compounds. The blood samples were promptly treated with methanol after collection, and were placed in frozen storage until the time of measurement treatment. After treating the resulting blood samples by solid phase extraction, blood compound concentrations were measured with a high-performance liquid chromatograph-quadropole mass spectrometer. Various pharmacokinetic parameters were then calculated using pharmacokinetics analysis software (Winnonlin Professional) from the resulting blood concentrations.

Experimental findings from patent publication US7910617B2 (Sankyo Company, Limited, priority 2004, dated 2011) are described below.

Consider `Cn1c(CC[C@@](C)(N)CO)ccc1C(=O)CCCc1ccccc1` [Comparative Compound 2, reference compound], for which, in data set [1], the “Lymphocyte Count (Relative Value Based on a value of 100% for Normal Control Group) (%)” value is 31% and the “ID50 of rat peripheral blood lymphocyte count” value (“ID50” for short) is given as 0.78 mg/kg.
Regarding `CC(N)(CO)CCc1ccc(C(=O)CCCCc2ccccc2)s1` (centres unmarked) [Comparative Compound 1, reference compound], the “Lymphocyte Count (Relative Value Based on a value of 100% for Normal Control Group) (%)” value in data set [1] was 30%.
Broadly, the Cmax is the highest concentration seen after dosing. On to `Cc1ccc(CCCC(=O)c2ccc(CC[C@@](C)(N)CO)n2C)cc1C.Cl` [Example 2, (2R)-2-Amino-2-methyl-4-{1-methyl-5-[4-(3,4-dimethylphenyl)butanoyl]pyrrol-2-yl}butan-1-ol hydrochloride], for which, in data set [2], the highest level (Cmax) was 8.4 ng/mL, the AUC(0-t) was 123 ng·h/mL and the half-life was 8.5 h.
For the compound `Cc1ccc(CCCC(=O)c2ccc(CC[C@@](C)(N)CO)n2C)cc1.Cl` [Example 1, (2R) -2-Amino-2-methyl-4-{1-methyl-5-[4-(4-methylphenyl)butanoyl]pyrrol-2-yl}butan-1-ol hydrochloride], in data set [2], the Cmax came out at 19.4 ng/mL, the AUC(0-t) was found to be 288 ng·h/mL and the half-life was 15.6 h. Moreover, in data set [1], the “Lymphocyte Count (Relative Value Based on a value of 100% for Normal Control Group) (%)” value was determined as 8% and the “ID50” value amounted to 0.21 mg/kg.
The matching figures for `COc1ccc(CCCC(=O)c2ccc(CC[C@@](C)(N)CO)n2C)cc1C.Cl` [Example 11, (2R)-2-Amino-2-methyl-4-{1-methyl-5-[4-(3-methyl-4-methoxyphenyl)butanoyl]pyrrol-2-yl}butan-1-ol hydrochloride]: 5.38 ng/mL, 71.7 ng·h/mL, 6.04 h, 11% and 0.39 mg/kg.
On to `Cc1ccc(CCCC(=O)c2ccc(CC[C@@](C)(N)CO)n2C)cc1C.Cl` [Example 2], for which, in data set [1], the “ID50” value is on record as 0.42 mg/kg.
